Pest or weed control, mortality and activity as miticides data for 11 compounds are collected here from patent EP0326331B1, “Substituted quinolines and cinnolines” (Dow AgroSciences LLC, priority 1988, dated 1989).

Structures are written as SMILES.

What all share (assay type): in vivo
Experiment [1] relates to Erysiphe graminis tritici (powdery mildew). Briefly: Test 1 greenhouse foliar spray screen, powdery mildew on wheat. The note with it: Blumeria graminis, foliar, Test 1, foliar spray on wheat; disease control rating at 400 ppm / 100 ppm; read-out: POWD MDEW.
Experiment [2] concerns Pyricularia oryzae (rice blast). Briefly: whole plant or invertebrate. The following applies: Pyricularia oryzae, foliar, read-out: RICE BLAST, Test 1, foliar spray on rice; disease control rating at 400 ppm / 100 ppm.
Experiment [3] concerns Puccinia recondita tritici (leaf rust). Nature of the experiment: Test 1 greenhouse foliar spray screen, leaf rust on wheat. The note with it: Puccinia recondita, foliar, Test 1, foliar spray on wheat; disease control rating at 400 ppm / 100 ppm.
The subject of experiment [4] is Botrytis cinerea (gray mold). Nature of the experiment: Test 1 greenhouse foliar spray screen, gray mold on grape berries. The note with it: Botrytis cinerea, foliar; Test 1, spray on grape berries; disease control rating at 400 ppm / 100 ppm.
Experiment [5] deals with Pseudoperonospora cubensis (downy mildew). Briefly: Test 1 greenhouse foliar spray screen, downy mildew on squash. The following applies: Pseudoperonospora cubensis, foliar, Test 1, foliar spray on squash; disease control rating at 400 ppm / 100 ppm; read-out: DOWN MDEW.
Experiment [6] deals with southern armyworm (Spodopetra eridania Cramer). Briefly: Mite/insect screen, SAW. The note with it: Spodoptera eridania, foliar, percent mortality, foliar spray on squash, read-out: SAW RESULTS %; for mortality at 200 ppm: rate 200 ppm; for mortality at 400 ppm: rate 400 ppm. The method in brief:
(§1)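 First, each compound was dissolved in an emulsifier-containing acetone/alcohol mixture and diluted with water. Next, leaves were sprayed until runoff and left to dry for an hour. For southern armyworm, two excised uninfested leaves went into a Petri dish with larvae; percent mortality followed standard exposure periods.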

Experiment [7] deals with Twospotted spider mites (Tetranychus urticae Koch). Briefly: Mite/insect screen, SM. The following applies: for mortality at 200 ppm / mortality at 400 ppm: Tetranychus urticae, foliar, percent mortality, foliar spray on squash, read-out: SM RESULTS %; for mortality at 200 ppm: rate 200 ppm; for mortality at 400 ppm: rate 400 ppm; for activity as miticides: summary statement in the description. The method in brief:
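Read-out: percent mortality after standard exposure periods. Test solutions were water dilutions of compound dissolved in acetone/alcohol (50:50) with emulsifier blends; leaves were sprayed to runoff on both surfaces and air-dried for one hour before exposure.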

The subject of experiment [8] is melon aphids (Aphis gossypii Glover). Nature of the experiment: Mite/insect screen, MA. The note with it: Aphis gossypii, foliar, percent mortality, foliar spray on squash, read-out: MA RESULTS %; for mortality at 200 ppm: rate 200 ppm; for mortality at 400 ppm: rate 400 ppm. The method in brief: as §1
A further experiment has as its system corn rootworm. Briefly: Mite/insect screen, CRW. The following applies: percent mortality, read-out: CRW RESULTS %; for mortality at 12 ppm: CRW rate 12.00 ppm; for mortality at 24 ppm: CRW rate 24.00 ppm. The gist of the method:
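Stock in acetone:alcohol 1:1 + TOXIMUL R 23 g/L + TOXIMUL S 13 g/L; diluted with water to indicated concentrations; mortality (%) after standard exposure.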

For `Clc1ccc(CCOc2ccnc3cc(Cl)ccc23)cc1` [Example 226, 7-chloro-4-[2-(4-chlorophenyl)ethoxy]quinoline], the pest or weed control at 400 ppm is 20 to 89% in [1]; 0 to 19% in [2]; 20 to 89% in [3]; 0 to 19% in experiment [4]; 20 to 89% in experiment [5]. Moreover, the mortality at 200 ppm in [6], in experiment [7] and in [8] was 0% throughout. The mortality at 400 ppm in experiment [6], in experiment [7] and in [8] was 0% throughout. Also, the mortality at 12 ppm in the experiment on corn rootworm came out at 0%. Moreover, the mortality at 24 ppm in the experiment on corn rootworm was determined as 0%.
For the compound `Cc1cc(C)c(CCOc2ccnc3c(F)cccc23)c(C)c1` [Example 227, 8-fluoro-4-[2-(2,4,6-trimethylphenyl)ethoxy]quinoline], the pest or weed control at 400 ppm in experiment [1] fell in the range of 0 to 19%; in experiment [2], 20 to 89%; in experiment [3] it was 20 to 89%; in experiment [4], 0 to 19%; in experiment [5], 0 to 19%. Moreover, the mortality at 200 ppm in experiment [6], in experiment [7] and in experiment [8] was 0% each time. Further, the mortality at 400 ppm in experiment [6], in experiment [7] and in [8] was 0% throughout. Besides, the mortality at 12 ppm with corn rootworm stood at 0%. In addition, the mortality at 24 ppm with corn rootworm stood at 0%.
In the case of `CC(C)(C)c1ccc(CCOc2ccnc3cc(Cl)ccc23)cc1` [Example 231, 7-chloro-4-[2-(4-(t-butyl)phenyl)ethoxy]quinoline], the pest or weed control at 400 ppm in experiment [1] was 20 to 89%; in experiment [2], 0 to 19%; in experiment [3], 0 to 19%; in [4] it was 0 to 19%; in experiment [5], 0 to 19%. Also, the values for the mortality at 200 ppm in [6], in experiment [7] and in experiment [8] were 0%, 90% and 0%, respectively. For the same compound, the results for the mortality at 400 ppm in experiment [6], in experiment [7] and in [8] were 0%, 40% and 50%, respectively. Also, the activity as miticides result in [7] is given as “particularly excellent activity”. Further, the mortality at 12 ppm in the experiment on corn rootworm came out at 0%. For the same compound, the mortality at 24 ppm in the experiment on corn rootworm came out at 0%.
Consider `CC(C)(C)c1ccc(CCOc2ccnc3cc(F)ccc23)cc1` [Example 232, 4-[2-(4-(t-butyl)phenyl)ethoxy]-7-fluoroquinoline], for which the pest or weed control at 400 ppm in [1], in experiment [2], in experiment [3], in experiment [4] and in experiment [5] was 0 to 19% in each case. Further, the results for the mortality at 200 ppm in experiment [6], in experiment [7] and in [8] were 0%, 100% and 70%, respectively. Also, the mortality at 400 ppm in experiment [6] came to 30%; in [7], 80%; in [8] it was 40%. In addition, in experiment [7], the activity as miticides result is “particularly excellent activity”. Besides, in the experiment with corn rootworm, the mortality at 12 ppm came out at 0%. In the experiment with corn rootworm, the mortality at 24 ppm came to 0%.
As for `Fc1cccc2c(OCCc3ccccc3-c3ccccc3)ccnc12` [Example 237, 8-fluoro-4-[2-(1,1'-biphenyl)-2-yl-ethoxy]quinoline], the pest or weed control at 400 ppm in experiment [1] fell in the range of 90 to 100%; in experiment [2], 90 to 100%; in experiment [3], 20 to 89%; in experiment [4], 0 to 19%; in [5] it was 0 to 19%. In addition, the mortality at 200 ppm in [6], in [7] and in experiment [8] was 0% each time. In addition, the mortality at 400 ppm in experiment [6] was 0%; in [7] it was 100%; in [8], 0%. Moreover, the activity as miticides entry in experiment [7] is recorded as “particularly excellent activity”. Further, the mortality at 12 ppm in the experiment on corn rootworm was found to be 0%. Also, the mortality at 24 ppm in the experiment on corn rootworm stood at 0%.
For `FC(F)(F)c1ccc2c(OCCc3ccccc3)ccnc2c1` [Example 239, 4-(2-phenylethoxy)-7-(trifluoromethyl)quinoline], the pest or weed control at 400 ppm in [1] was 90 to 100%; in experiment [2], 90 to 100%; in [3] it was 90 to 100%; in [4] it was 0 to 19%; in [5], 90 to 100%. Moreover, the mortality at 200 ppm in experiment [6], in experiment [7] and in [8] was 0% throughout. In addition, the mortality at 400 ppm in experiment [6], in [7] and in experiment [8] was 0% each time. Also, the mortality at 12 ppm with corn rootworm was determined as 0%. The mortality at 24 ppm in the experiment on corn rootworm was determined as 0%.
For `Fc1ccc(CCOc2ccnc3c(Cl)cccc23)cc1` [Example 240, 8-chloro-4-[2-(4-fluorophenyl)ethoxy]quinoline], the pest or weed control at 400 ppm fell in the range of 0 to 19% in experiment [1]; 20 to 89% in experiment [2]; 90 to 100% in experiment [3]; 0 to 19% in [4]; 0 to 19% in experiment [5]. For the same compound, the mortality at 400 ppm in experiment [6], in experiment [7] and in experiment [8] was 0% each time. For the same compound, the mortality at 24 ppm in the experiment with corn rootworm was determined as 0%.
For the compound `CC(C)(C)c1ccc(CCCOc2ccnc3c(F)cccc23)cc1` [Example 241, 8-fluoro-4-[3-[4-(t-butyl)phenyl]propoxy]quinoline], the pest or weed control at 400 ppm in [1], in [2], in [3], in experiment [4] and in experiment [5] was 0 to 19% throughout. In addition, the mortality at 400 ppm in [6], in experiment [7] and in [8] was 0% each time. Also, the mortality at 24 ppm in the experiment on corn rootworm amounted to 0%.
For `Clc1ccc(CCCOc2ccnc3c(Cl)cccc23)cc1` [Example 242, 8-chloro-4-[3-(4-chlorophenyl)propoxy]quinoline], the pest or weed control at 400 ppm in experiment [1], in [2], in experiment [3], in [4] and in experiment [5] was 0 to 19% each time. Also, the mortality at 200 ppm in experiment [6], in [7] and in experiment [8] was 0% each time. Besides, the mortality at 400 ppm in experiment [6], in [7] and in [8] was 0% each time. Also, the mortality at 12 ppm in the experiment on corn rootworm came out at 0%. Also, the mortality at 24 ppm in the experiment with corn rootworm turned out to be 0%.
On to `Fc1cccc2c(OCC=Cc3ccccc3)ccnc12` [Example 243, 8-fluoro-4-[(3-phenyl-2-propenyl)oxy]quinoline], for which the pest or weed control at 400 ppm in experiment [1], in [2], in experiment [3], in experiment [4] and in experiment [5] was 0 to 19% in each case. For the same compound, the mortality at 400 ppm in experiment [6], in experiment [7] and in experiment [8] was 0% each time. Also, in the experiment on corn rootworm, the mortality at 24 ppm is 0%.
Regarding `Cc1cc(OCCC2CCCCC2)c2c(Cl)ccc(C)c2n1` [Example 248, 5-chloro-4-(2-cyclohexylethoxy)-2,8-dimethylquinoline], the pest or weed control at 400 ppm was 20 to 89% in experiment [1]; 0 to 19% in experiment [2]; 0 to 19% in experiment [3]; 0 to 19% in experiment [4]; 0 to 19% in experiment [5]. The mortality at 400 ppm in experiment [6], in experiment [7] and in experiment [8] was 0% in each case. Besides, in the experiment on corn rootworm, the mortality at 24 ppm worked out at 0%.
